Literature values as cited in patent US7279573B2, “Amide derivatives” (Kaken Pharmaceutical Co., Ltd., priority 1997, dated 2007).

Legend:
growth hormone releasing = conditions: control compounds for pharmacophore development
[1] = human, in vivo

oral bioavailability [1]	Compound	growth hormone releasing activity (active/inactive) (growth hormone releasing)
–	CC(C)(N)CC(=O)N[C@H]1CCc2ccccc2N(Cc2ccc(-c3ccccc3-c3nn[nH]n3)cc2)C1=O [L-692,428]	inactive
0.3%	GHRP-6	–
